{
  "source": "patent US20150259371A1",
  "about": "“METHODS AND COMPOUNDS FOR INHIBITING GLYCOSYLTRANSFERASES” (SIMON FRASER UNIVERSITY, priority 2010, published 2015)",
  "key": {"[1]": {"system": "O-GlcNAc levels in CHO cells", "experiment": "Western blot of O-GlcNAc levels (CTD110.6) in treated CHO cells", "assay_type": "cell-based, Chinese hamster", "protocol": "(§1) Cell culture: Cells were grown in an incubator at 37° C. and 5% CO2 atmosphere. Media and serum were purchased from Invitrogen. COS-7 cells were cultured in Dulbecco's modified Eagle's medium (DMEM) with 5% fetal bovine serum (FBS), and were typically 80-100% confluent prior to experimentation. HepG2, SK-N-SH, and EMEG32^−/− cells were cultured in Dulbecco's modified Eagle's medium (DMEM) with 5% fetal bovine serum (FBS), CHO cells in DMEMF-12 with 5% FBS and PC12 cells in DMEM with 5% FBS and 5% horse serum. Prior to experimentation, PC12 cells were plated at a density of 3-4×10^5 cells10 cm plate, which had been pre-treated with 5 μgcm^2 rat tail collagen (BD Biosciences). Cells were differentiated in DMEM containing 1% horse serum, in the presence of 2.5S mouse nerve growth factor (Chemicon) at a final concentration of 25 ng mL^−1, for 4-5 days prior to treatment. Other cell lines were 80-100% confluent prior to treatment. […]\nAntibodieslectins: O-GlcNAc levels were assessed primarily using CTD110.6 (Covance), but RL2 (Abcam) and HGAC85 (Abcam) were also tested. […] OGA levels were assessed using a polyclonal anti-OGA antibody which was a kind gift from Dr. Gerald Hart and OGT levels using H-300 (Santa Cruz Biotechnology). nup62 was probed using mAb 414 (Covance). […]"}, "CHO cells": {"system": "CHO cells", "experiment": "Cell proliferation growth curves over 5 days, CHO cells", "assay_type": "cell-based, Chinese hamster", "settings": "50 μM", "protocol": "(§2) (A) Cell proliferation curves over the course of 5 days for CHO cells following no (circles), 50 μM Ac-GlcNAc (squares) or 50 μM Ac-5SGlcNAc (triangles) treatment. The error bars indicate the deviation from the mean for triplicate measurements. […] Upper panel, probed with anti-O-GlcNAc antibody (CTD110.6); lower panel, probed with anti-actin antibody. (B) Cell proliferation curves over the course of 5 days for EMEG heterozygous mouse embryonic fibroblast cells following no (circles), 50 μM Ac-GlcNAc (squares) or 50 μM Ac-5SGlcNAc (triangles) treatment. The error bars indicate the deviation from the mean for triplicate measurements. […] Upper panel, probed with anti-O-GlcNAc antibody (CTD110.6); lower panel, probed with anti-actin antibody. (C) Western blots of CHO cell lysates following no (C) or Ac-5SGlcNAc administration at 50 μM for 4 days. Probed with (from top to bottom) anti-Spl antibody, anti O-GlcNAc (CTD110.6) antibody and anti-actin antibody. Full blot of the anti-Sp 1 is shown in panel (d). […]\n(§3) Cellular responses to Ac-5SGlcNAc (9) treatment and consequent decreases in O-GlcNAc levels were evaluated. […] We quantitatively evaluated cell proliferation and established growth curves over the course of 5 days in both CHO and EMEG32 heterozygous mouse embryonic fibroblast cells treated with 50 μM Ac-5SGlcNAc (9), 50 μM Ac-GlcNAc (G), or vehicle (FIGS. 5A-B)."}, "transcription factor Sp1": {"system": "transcription factor Sp1", "experiment": "Western blot of Sp1 levels in CHO cells", "assay_type": "cell-based, Chinese hamster", "settings": "50 μM, 4 days", "protocol": "as §2, §3"}, "[2]": {"system": "O-GlcNAc levels in different cell lines (COS-7, CHO, SK-N-SH, HepG2, PC12, mouse hybridoma, EMEG32-/-)", "experiment": "Western blot of O-GlcNAc levels in various cell lines", "assay_type": "cell-based", "settings": "50 μM (100 μM for PC12), 24 h; listed as Ac-5SGlcNAc", "protocol": "FIG. 2L. Western blots of cell lysates from different cell lines following no (C), Ac-GlcNAc (G) or Ac-5SGlcNAc (5SG) administration at 50 μM (or 100 μM for PC12 cells) for 24 h. Upper panel, probed with anti-O-GlcNAc antibody (CTD110.6); lower panel, anti-actin antibody. Cell lines used: COS-7 (African green monkey kidney cell line), CHO (Chinese hamster ovary cell line), SK-N-SH (human neuroblastoma cell line), HepG2 (human liver carcinoma cell line), PC12 (rat adrenal medulla pheochromocytoma cell line, which terminally differentiate upon nerve growth factor treatment), mouse hybridoma cell line and EMEG32^−/− (mouse embryonic fibroblasts deficient in glucosamine-6-phosphate acetyltransferase).\nas §1, with “Biosciences).” for “Biosciences). Cells were differentiated in DMEM containing 1% horse serum, in the presence of 2.5S mouse nerve growth factor (Chemicon) at a final concentration of 25 ng mL^−1, for 4-5 days prior to treatment. Other cell lines were 80-100% confluent prior to treatment.”"}},
  "note": "Entries after “also recorded” stand apart in the source; their conditions may differ.",
  "data": [
    {"smiles": "CC(=O)NC1C(OC(C)=O)SC(COC(C)=O)C(OC(C)=O)C1OC(C)=O", "note": "[Compound 9, N-Acetyl-1,3,4,6-tetra-O-acetyl-α-D-5-thio-glucosamine]", "values": [
      {"measurement": "O-GlcNAc levels at last time point of growth curve", "setting": "[1]; 50 μM, 5 days", "value": "O-GlcNAc levels are still significantly decreased in cells treated with Ac-5SGlcNAc"},
      {"measurement": "EC50", "setting": "[1]; Cricetulus griseus, 24 h, read-out: EC50 for reduction of O-GlcNAc levels", "value": 800, "unit": "nM"},
      {"measurement": "growth rate", "setting": "CHO cells", "value": "indistinguishable from those of Ac-GlcNAc (G) and vehicle treated cells"},
      {"measurement": "Sp1 levels", "setting": "transcription factor Sp1", "value": "decreases were observed in the levels of transcription factor Sp1"},
      {"measurement": "O-GlcNAc levels in the cell lines tested", "setting": "[2]", "value": "Various other cell lines showed equivalent responses; also recorded: near complete loss of O-GlcNAc in the cell lines tested"}
    ]}
  ]
}
